Experimental data reported in patent publication EP4509511A1, “SUBSTITUTED SPIRO-ISOXAZOLINYL LACTAMS, SALTS THEREOF AND THEIR USE AS HERBICIDALLY ACTIVE SUBSTANCES” (Bayer Aktiengesellschaft, priority 2023, dated 2025).

Columns and labels:
[1] = test system: BRSNW; assay: Post-emergence effects on crop plants; assay type: in vivo, Brassica napus; details: crop plant
Excerpt: (§1) Seeds of mono- and dicotyledonous weed plants and crop plants were sown, in plastic or organic planting pots, in sandy loam, covered with soil and grown in a greenhouse under controlled growth conditions. 2 to 3 weeks after sowing, the test plants were sprayed in the single-leaf stage. The compounds according to the invention, formulated in form of wettable powders (WP) or as emulsifiable concentrates (EC), were sprayed onto the green plant parts as aqueous suspension or emulsion, with the addition of 0.5% of an additive, at an application rate of 600 1 of water/ha (converted). The test plants were placed in the greenhouse for ca. 3 weeks under optimum growth conditions, and then the effect of the preparations was assessed visually in comparison with untreated controls (herbicidal effect in percent (%): 100% effect = plants have died off, 0% effect = as control plants). Tables F1 to F5 below show the effects of selected compounds of the general formula (I) according to table 1 on various crop plants and an application rate corresponding to 320 g/ha or below obtained by the experimental procedure mentioned above. Table […]: post-emergence activity at 5g/ha against ZEAMX in %

[2] = test system: ORYZA; assay: Post-emergence effects on crop plants; assay type: in vivo, Oryza sativa; details: crop plant
Excerpt: as §1

[3] = test system: KCHSC; assay: Herbicidal post-emergence action - Part I; assay type: in vivo, Kochia scoparia; details: one-leaf stage, rated visually after about 3 weeks vs untreated controls
Procedure, shortened: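 Greenhouse weeds grown in sandy loam were sprayed post-emergence at the one-leaf stage, 2-3 weeks after sowing. Compounds were applied as WP or EC in water with 0.5% additive at 600 L/ha, at 1280 g/ha or below. Visual damage was rated after about 3 weeks versus untreated plants (0-100%).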

[4] = test system: ECHCG; assay: Herbicidal pre-emergence action - Part II; assay type: in vivo, Echinochloa crus-galli
Excerpt: (§2) Seeds of mono- and dicotyledonous weed plants and crop plants were sown, in plastic or organic planting pots, in sandy loam and covered with soil. The compounds according to the invention, formulated in the form of wettable powders (WP) or as emulsifiable concentrates (EC), were applied to the surface of the covering soil as aqueous suspension or emulsion, with the addition of 0.5% of an additive, at an application rate of 600 1 of water/ha (converted). Following treatment, the pots were placed in a greenhouse and kept under optimum growth conditions for the test plants. The visual grading of the damage to the test plants was carried out after ca. 3 weeks in comparison to untreated controls (herbicidal effect in percent (%): 100% effect = plants have died off, 0% effect = as control plants). Tables C1 to C12 below show the effects of selected compounds of the general formula (I) according to table 1 on various harmful plants and an application rate corresponding to 320 g/ha or below obtained by the experimental procedure mentioned above. Table C1: pre-emergence activity at 320g/ha against ABUTH in %

[5] = test system: POAAN; assay: Herbicidal pre-emergence action - Part I; assay type: in vivo, Poa annua; details: visual grading after ca. 3 weeks vs untreated controls
Procedure, shortened: (§3)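 In this greenhouse pre-emergence test, formulated compounds with 0.5% additive were applied at 1280 g/ha or below onto the soil covering sown weed seeds in sandy loam. After roughly three weeks, plant damage was scored by eye in percent versus untreated controls.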

[6] = test system: MATIN; assay: Herbicidal pre-emergence action - Part I; assay type: in vivo, Matricaria inodora; details: visual grading after ca. 3 weeks vs untreated controls
Procedure, shortened: as §3

[7] = test system: ZEAMX; assay: Post-emergence effects on crop plants; assay type: in vivo, Zea mays; details: crop plant
Procedure, shortened: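 Crop plants were grown in sandy loam in the greenhouse and sprayed at the single-leaf stage, 2–3 weeks after sowing, with WP or EC formulations plus 0.5% additive in 600 l water/ha, at rates of 320 g/ha or below. Injury was scored visually about 3 weeks later as % effect versus untreated controls (100% = plants dead).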

[8] = test system: AMARE; assay: Herbicidal pre-emergence action - Part I; assay type: in vivo, Amaranthus retroflexus; details: for pre-emergence activity at 320g/ha against AMARE in % / pre-emergence activity at 1280g/ha against AMARE in %: visual grading after ca. 3 weeks vs untreated controls
Procedure, shortened: as §3

[9] = test system: DIGSA; assay: Herbicidal pre-emergence action - Part II; assay type: in vivo, Digitaria sanguinalis
Excerpt: as §2

[10] = test system: ECHCG; assay: Herbicidal pre-emergence action - Part I; assay type: in vivo, Echinochloa crus-galli; details: visual grading after ca. 3 weeks vs untreated controls
Procedure, shortened: as §3

[11] = test system: TRZAS; assay: Pre-emergence effects on crop plants; assay type: in vivo, Triticum aestivum; details: crop plant
Excerpt: Seeds of mono- and dicotyledonous weed plants and crop plants were sown, in plastic or organic planting pots, in sandy loam and covered with soil. The compounds according to the invention, formulated in the form of wettable powders (WP) or as emulsifiable concentrates (EC), were applied to the surface of the covering soil as aqueous suspension or emulsion, with the addition of 0.5% of an additive, at an application rate of 600 1 of water/ha (converted). Following treatment, the pots were placed in a greenhouse and kept under optimum growth conditions for the test plants. The visual grading of the damage to the test plants was carried out after ca. 3 weeks in comparison to untreated controls (herbicidal effect in percent (%): 100% effect = plants have died off, 0% effect = as control plants). Tables D1 to D5 below show the effects of various compounds of the general formula (I) according to Table 1 on various crop plants and an application rate corresponding to 320 g/ha or below obtained by the experimental procedure mentioned above in Biological Examples, Section C. Table […]: pre-emergence activity at 320g/ha against ZEAMX in %

[12] = 80 g/ha, table titled F4c (BRSNW)

Row | Structure (SMILES) | post-emergence activity against BRSNW [1, 12] | post-emergence activity against ORYZA ([2]; 320 g/ha, Table F3a) | post-emergence activity at 320g/ha against KCHSC in % [3] | post-emergence activity at 1280g/ha against KCHSC in % [3] | pre-emergence activity against ECHCG ([4]; 320 g/ha, Table C6a) | pre-emergence activity at 320g/ha and against POAAN in % [5] | pre-emergence activity at 1280g/ha and against POAAN in % [5] | pre-emergence activity at 320g/ha against MATIN in % [6] | pre-emergence activity at 1280g/ha against MATIN in % [6] | post-emergence activity against ZEAMX ([7]; 80 g/ha, Table F1c) | post-emergence activity against ZEAMX ([7]; 320 g/ha, Table F1d) | pre-emergence activity at 320g/ha against AMARE in % [8] | pre-emergence activity at 1280g/ha against AMARE in % [8] | pre-emergence activity against DIGSA ([9]; 320 g/ha, Table C5a) | pre-emergence activity at 320g/ha against ECHCG in % [10] | pre-emergence activity at 1280g/ha against ECHCG in % [10] | pre-emergence activity against TRZAS ([11]; 80 g/ha, Table D2b) | other results
1 | Cc1ccsc1C1=NOC2(CCCN(Cc3c(F)cccc3F)C2=O)C1 (racemic) [Compound I-2] | 10% | 20% | 90% | 90% | 100% | 100% | 100% | 90% | 90% | 0% | 20% | 90% | 90% | 100% | 100% | 100% | 0% | pre-emergence activity against ECHCG ([4]; 80 g/ha, Table C6b): 90%; pre-emergence activity at 80g/ha and against POAAN in % ([5]; 80 g/ha): 100%; pre-emergence activity against DIGSA ([9]; 80 g/ha, Table C5b): 90%
2 | Cc1ccsc1C1=NOC2(CCN(Cc3c(F)cccc3F)C2=O)C1 (racemic) [Compound I-16, 7-(2,6-Difluorobenzyl)-3-(3-methyl-2-thienyl)-1-oxa-2,7-diazaspiro[4.4]non-2-en-6-one] | 0% | 0% |  | 90% | 90% | 100% | 100% | 90% | 90% | 0% | 0% | 90% | 90% | 80% | 100% | 100% | 10% | post-emergence activity against BRSNW ([1]; table titled F4d (BRSNW), title: 320 g/ha, application rate: 80 g/ha): 0%; post-emergence activity against ORYZA ([2]; Table F3b, title: 80g/ha, application rate column: 320 g/ha): 0%; pre-emergence activity against TRZAS ([11]; Table D2a, title: 320g/ha, application rate: 80 g/ha): 10%
3 | O=C1N(Cc2ccccc2F)CCC12CC(c1c(F)cccc1F)=NO2 (racemic) [Compound I-10] | 0% | 0% | 90% | 90% | 90% | 90% | 100% | 90% | 90% | 0% | 0% | 90% | 90% | 90% |  | 100% | 0% | pre-emergence activity at 80g/ha against AMARE in % ([8]; 80 g/ha, 504 h): 90%
